Values of other authors, collected in patent US20220354785A1, “ORAL LOZENGE PRODUCTS” (NICOVENTURES TRADING LIMITED, priority 2021, published 2022).

How the values were obtained:
[1] = aqueous environment (e.g., saliva) / water
[2] = isomerizes to trans-bixin

| Structure (SMILES) | logP value | solubility in water [1] | chemical stability when isolated [2] |
| --- | --- | --- | --- |
| C=C(C)[C@@H]1CCC(C)=C[C@H]1c1c(O)cc(CCCCC)cc1O [CBD, cannabidiol] | about 6.5 | – | – |
| COC(=O)/C=C/C(C)=C\C=C\C(C)=C\C=C\C=C(C)\C=C\C=C(C)\C=C\C(=O)O [bixin] | – | insoluble in water | chemically unstable when isolated |
